The values that follow come from patent publication US20210318292A1, “System and Method to Detect Small Molecules” (Sensorium Bio, Inc., priority 2020, published 2021).

In assay [1] the test system is exogenous ethylene benzene responsive GPCR. The note with it: pure 5 μL hanging droplet on plate lid, no direct contact; transfected human embryonic kidney cells; within minutes. As for the experimental part: Transfected human embryonic kidney cells were seeded at 60,000 cells per well in a poly-D-lysine coated 96-well plate. The exogenous ethylene benzene responsive GPCR and calcium reporter were present in the cytosol. Pure ethylene benzene was deposited as a hanging 5 μL droplet on the plate lid. Once the plate was placed over the well, there was no direct contact between the […] and the culture medium overlaid cells.

The test system of assay [2] is mOR256. The assay can be described thus: Luminescent assay (cAMP-responsive luciferase reporter). The class given is cell-based. The conditions noted are these: FIG. 6B; luciferase reporter read 5.5 hours after stimulation.
In assay [3] the target is T1, OR1A1 (Homo sapiens, UniProt Q9P1Q5).
T1 sequence (Q9P1Q5 1-309): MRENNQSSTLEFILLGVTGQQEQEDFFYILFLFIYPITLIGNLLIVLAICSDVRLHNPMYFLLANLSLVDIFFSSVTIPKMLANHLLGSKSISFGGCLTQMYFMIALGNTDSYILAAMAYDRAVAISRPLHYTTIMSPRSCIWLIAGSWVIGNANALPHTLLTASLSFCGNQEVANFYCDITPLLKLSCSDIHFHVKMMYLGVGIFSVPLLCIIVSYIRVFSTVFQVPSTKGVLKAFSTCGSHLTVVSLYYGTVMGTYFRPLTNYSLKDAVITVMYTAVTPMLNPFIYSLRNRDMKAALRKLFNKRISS
The description is as above. The class given is cell-based. The conditions noted are these: FIG. 6A; luciferase reporter read 5.5 hours after stimulation. As for the experimental part: Cells are seeded at a density of 15,000 cells per well in a solid white 96-well microplate and allowed to adhere prior to be transfected with different plasmids including but not limited to 10 ng GPCR-expressing plasmid and 10 ng cAMP-responsive luciferase reporter plasmid. The day following the transfection, the receptor-expressing cells are then stimulated with the ligands being tested. After a period to 5.5 hours following the stimulation, the cells are lysed and the luciferase reporter activity is measured following the manufacturer protocol. The amount of luciferase activity is proportional to the ligand-mediated activation level of the exogenous GPCR. FIG. 6 is the result of luminescent assay showing dose response curves of OR1A1 for propylbenzene in FIG. 6A and 1-hexanol in FIG. 6B. The cells produce light by expressing a luciferase enzyme as a reporter readout from a cAMP secondary messenger. The ligand-mediated GPCR activation leads to intracellular cAMP accumulation which triggers a luciferase activity increase which is measured.
(In general: In a reporter assay the amount or activity of a reporter protein is the signal.)

For assay [4], the target named is T1, OR1A1. The conditions noted are these: cited from earlier work.
Assay [5] relates to MOR272-1. The note with it: cited from earlier work.
For assay [6], the system named is MOR271-1. The note with it: cited from earlier work.
Assay [7] deals with MOR203-1. The note with it: cited from earlier work.
Assay [8] deals with T2, OR2W1 (Homo sapiens, UniProt Q9Y3N9).
T2 sequence (Q9Y3N9 1-320): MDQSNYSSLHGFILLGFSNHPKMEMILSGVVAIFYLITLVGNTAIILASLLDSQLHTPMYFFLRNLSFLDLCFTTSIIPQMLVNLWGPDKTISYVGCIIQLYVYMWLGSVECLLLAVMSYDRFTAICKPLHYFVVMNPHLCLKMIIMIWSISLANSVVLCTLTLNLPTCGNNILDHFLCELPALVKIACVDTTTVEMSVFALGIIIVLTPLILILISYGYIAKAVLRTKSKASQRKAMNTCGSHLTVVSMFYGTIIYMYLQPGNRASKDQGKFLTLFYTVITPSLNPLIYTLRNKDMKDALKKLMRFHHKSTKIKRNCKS
The note with it: cited from earlier work.

Consider `C=C.c1ccccc1` [ethylene benzene], for which the “fluorescence of the calcium reporter after gas phase exposure” value in assay [1] is recorded as “measurable fluorescence increase”.

`CCCCCCO` [1-hexanol]: the “detection by mOR256, luminescent assay dose response curve” value in assay [2] was “detection”.

For the molecule `CCCc1ccccc1` [propylbenzene], in assay [3], the “detection by OR1A1, luminescent assay dose response curve” value is listed as “detection”.

For `CCCCC(=O)CC` [3-heptanone], the “binding to receptor OR1A1” value in assay [4] was “bind differentially”. Also, the “binding to receptor MOR272-1” value in assay [5] is on record as “bind differentially”. Also, the “binding to receptor MOR271-1” value in assay [6] was “bind differentially”. The “binding to receptor MOR203-1” value in assay [7] is recorded as “bind differentially”. Also, the “binding to receptor OR2W1” value in assay [8] is on record as “bind differentially”.

As to `CCCCCCC(C)=O` [2-octanone], in assay [4], the “binding to receptor OR1A1” value is given as “bind differentially”. Besides, in assay [5], the “binding to receptor MOR272-1” value is reported as “bind differentially”. Moreover, in assay [7], the “binding to receptor MOR203-1” value is “bind differentially”. In addition, the “binding to receptor OR2W1” value in assay [8] is listed as “bind differentially”.
